Measured values published in US4338445A, “N-(Carbonylamino)-tetrahydropyridyl derivatives” (Canadian Patents & Development Limited, priority 1979, dated 1982).
“Also recorded” adds a separate entry of the source. Where two headings read alike, the source gives them in different places.

How the values were obtained:
[1] = test system: phenylquinone-induced muscular writhing; assay: Analgesic activity, phenylquinone-writhing test; type: in vivo, Swiss albino mice; details: for Physiological activity: analgesic (in words): mouse, in vivo
Method: (§1) The compounds of formula (1) have anti-inflammatory, analgesic, hyperglycemic, and/or hypoglycemic properties. […] A. Winter, p.190-202, Int. Symposium on Non-Steroidal Anti-Inflammatory Drugs, Milan, 1964, Excerpta Medica Foundation, Amsterdam. […] J. Pharmac. Chemother. 32, 295 (1968). […] Chem. 3, 99 (1961) and by Barthelmai et al., in Klin. Wchschr. 40, 585 (1962).
(§2) Initially the activity of the compound tested on an animal was determined at a single dose. If the substance was active at this dose, it was subjected to limited repeat testing. If the presence of activity was confirmed by repetition of the testing, a dose response relation was constructed and the effective dose (ED50) determined. If toxicity was encountered with the initial dose, the dose was reduced until one was reached which was tolerated by the animals tested.
Substances were administered subcutaneously to five Swiss albino mice, weighing 18 to 22 grams, before determining their activity in the phenylquinone-writhing test (see Collier et al, cited above). The active ingredients were suspended in a solution of physiological saline and "Tween 80™" surfactant. A dose amounting to 10 milliliters of physiological saline solution and active ingredient per kilogram of bodyweight was administered to the mice according to the dosage as set out in Table 2. The test results are shown in Table 2, the compounds tested being compared to Aspirin™ and dextropropoxyphene™.

blood glucose = assay: Determination of blood glucose (hyperglycemic / hypoglycemic activity); type: in vivo, Wistar rats; details: for % change in blood-glucose concentrations, post-treatment 2 hours / % change in blood-glucose concentrations, post-treatment 4 hours / ED50: oral, fasted rats; for % change in blood-glucose concentrations, post-treatment 2 hours / % change in blood-glucose concentrations, post-treatment 4 hours: 100 mg/kg; for ED50: Rattus norvegicus, dose elevating blood glucose by 50 percent; for Physiological activity: hyperglycemic (in words) / Physiological activity: hypoglycemic (in words): rat, in vivo
Method: as §1, §2
Compounds were suspended in distilled water and were administered orally to overnight-fasted Wistar rats. Capillary blood samples were obtained from the tail at zero, two, and four hours post-treatment and the sera derived from these samples were analyzed for glucose by spectrophotometric determination of enzymatically produced NADH2 (reduced form of nicotinamide adenine dinucleotide), using the commercial reagent "Escalab G-15™" according to the method described by Holland et al and by Barthelmai et al, both cited above. The test results are shown in Tables 4 and 5, and the ED50 values shown in Table 4 were calculated as the dose of compound which elevated blood glucose levels by 50 percent.

[2] = test system: carrageenan-induced paw edema; assay: Anti-inflammatory activity, carrageenan-induced paw edema; set-up: species or system Sprague-Dawley rats; details: rat, in vivo
Method: as §1, §2
Substances were administered subcutaneously to six Sprague-Dawley rats, weighing 100-120 g. A suspension of 0.03% carageenan was injected under the plantar skin of a hind paw. The increase in volume of the inflamed paw was measured 3 and 5 hours after drug administration.

[3] = Mus musculus, sc, mice, 128 mg/kg, read-out: Response % inhibition
[4] = Mus musculus, sc, mice, read-out: Response % inhibition
[5] = Mus musculus, sc, mice, Litchfield and Wilcoxon, read-out: ED50
[6] = 2 hours, read-out: ED50, hyperglycemic activity, post-treatment 2 hours
[7] = 4 hours, read-out: ED50, hyperglycemic activity, post-treatment 4 hours

CC(=O)Oc1ccccc1C(=O)O [Aspirin, reference compound]
ED50 ([1]; Mus musculus, sc): 52 mg/kg

CCCNC(=O)NS(=O)(=O)c1ccc(Cl)cc1 [Chlorpropamide, reference compound]
% change in blood-glucose concentrations, post-treatment 2 hours (blood glucose; 2 hours): > -40% | % change in blood-glucose concentrations, post-treatment 4 hours (blood glucose; 4 hours): > -40%

O=C(NN1CC=CCC1)c1cccc[n+]1[O-] [Compound A-36, N-(2-pyridylcarbonylamino-1-oxide)-1,2,3,6-tetrahydropyridine]
Physiological activity: anti-inflammatory (in words) [2]: anti-inflammatory | inhibition in vivo at 128 mg/kg [1, 3]: 55.3% | Physiological activity: analgesic (in words) [1]: analgesic

COC(=O)N1C=CC(C(=O)NN2CC=CCC2)=CC1 [Compound A-45, N-[4-(1-methoxycarbonyl-1,2-dihydropyridyl)carbonylamino]-1,2,3,6-tetrahydropyridine]
Physiological activity: anti-inflammatory (in words) [2]: striking anti-inflammatory action, comparing favourably with the standard compound used | inhibition in vivo at 16 mg/kg [1, 4]: 61% | inhibition in vivo at 32 mg/kg [1, 4]: 61% | inhibition in vivo at 128 mg/kg [1, 3]: 97% | inhibition in vivo at 256 mg/kg [1, 4]: 95% | Physiological activity: analgesic (in words) [1]: active analgesics; also recorded: analgesic

O=C(Cc1cccnc1)NN1CC=CCC1 [Compound A-48, N-(3-picolylcarbonylamino)-1,2,3,6-tetrahydropyridine]
Physiological activity: anti-inflammatory (in words) [2]: striking anti-inflammatory action, comparing favourably with the standard compound used | inhibition in vivo at 8 mg/kg ([1]; Mus musculus, sc, mice, 8 mg/kg, read-out: Response % inhibition): 28% | inhibition in vivo at 16 mg/kg [1, 4]: 45% | inhibition in vivo at 32 mg/kg [1, 4]: 94% | inhibition in vivo at 128 mg/kg [1, 3]: 100% | inhibition in vivo at 256 mg/kg [1, 4]: 100% | ED50 [1, 5]: 14.5 mg/kg | Physiological activity: analgesic (in words) [1]: active analgesics; also recorded: analgesic

COC(=O)N1CC=C(C(=O)NN2CC=CCC2)CC1 [Compound A-49, N-[4-(1-methoxycarbonyl-1,2,3,6-tetrahydropyridyl)carbonylamino]-1,2,3,6-tetrahydropyridine]
Physiological activity: anti-inflammatory (in words) [2]: anti-inflammatory | inhibition in vivo at 64 mg/kg [1, 4]: 3% | inhibition in vivo at 128 mg/kg [1, 3]: 78% | inhibition in vivo at 256 mg/kg [1, 4]: 95% | Physiological activity: analgesic (in words) [1]: active analgesics; also recorded: analgesic

CN1CC=C(C(=O)NN2CC=CCC2)CC1 [Compound A-50, N-[4-(1-methyl-1,2,3,6-tetrahydropyridyl)carbonylamino]-1,2,3,6-tetrahydropyridine]
inhibition in vivo at 256 mg/kg [1, 4]: 47% | Physiological activity: analgesic (in words) [1]: analgesic

O=C(CCc1ccccc1)NN1CC=CCC1 [Compound A-55, N-(phenylethylcarbonylamino)-1,2,3,6-tetrahydropyridine]
Physiological activity: anti-inflammatory (in words) [2]: striking anti-inflammatory action, comparing favourably with the standard compound used | inhibition in vivo at 120 mg/kg [1, 4]: 42% | Physiological activity: analgesic (in words) [1]: analgesic

O=C(COc1ccccc1)NN1CC=CCC1 [Compound A-62, N-(phenoxymethylenecarbonylamino)-1,2,3,6-tetrahydropyridine]
ED50 (blood glucose; [6]): 41 mg/kg | ED50 (blood glucose; [7]): 53 mg/kg | Physiological activity: hyperglycemic (in words) (blood glucose): significant hyperglycemic activity; also recorded: hypergylcemic | Physiological activity: anti-inflammatory (in words) [2]: striking anti-inflammatory action, comparing favourably with the standard compound used | inhibition in vivo at 25 mg/kg ([1]; Mus musculus, sc, mice, 25 mg/kg, read-out: Response % inhibition): 50% | ED50 [1, 5]: 25 mg/kg | Physiological activity: analgesic (in words) [1]: active analgesics; also recorded: analgesic

O=C(NN1CC=CCC1)C1CCCCC1 [Compound A-63, N-(cyclohexylcarbonylamino)-1,2,3,6-tetrahydropyridine]
ED50 (blood glucose; [6]): 36.5 mg/kg | ED50 (blood glucose; [7]): 53 mg/kg | Physiological activity: hyperglycemic (in words) (blood glucose): significant hyperglycemic activity | Physiological activity: anti-inflammatory (in words) [2]: striking anti-inflammatory action, comparing favourably with the standard compound used | inhibition in vivo at 16.5 mg/kg ([1]; Mus musculus, sc, mice, 16.5 mg/kg, read-out: Response % inhibition): 50% | ED50 [1, 5]: 16.5 mg/kg | Physiological activity: analgesic (in words) [1]: active analgesics; also recorded: analgesic

O=C(Cc1ccc2c(c1)OCO2)NN1CC=CCC1 [Compound A-70, N-(3,4-methylenedioxyphenylmethylenecarbonylamino)-1,2,3,6-tetrahydropyridine]
inhibition in vivo at 60 mg/kg ([1]; Mus musculus, sc, mice, 60 mg/kg, read-out: Response % inhibition): 80% | inhibition in vivo at 120 mg/kg [1, 4]: 91% | Physiological activity: analgesic (in words) [1]: active analgesics; also recorded: analgesic

COc1ccc(C(=O)NN2CC=CCC2)cc1 [Compound A-77, N-(4-methoxyphenylcarbonylamino)-1,2,3,6-tetrahydropyridine]
% change in blood-glucose concentrations, post-treatment 2 hours (blood glucose; 2 hours): -69% | % change in blood-glucose concentrations, post-treatment 4 hours (blood glucose; 4 hours): -26% | Physiological activity: hypoglycemic (in words) (blood glucose): potent hypoglycemic activity | inhibition in vivo at 128 mg/kg [1, 3]: 31.4% | Physiological activity: analgesic (in words) [1]: analgesic

Cc1ccc(C(=O)NN2CC=CCC2)cc1 [Compound A-78, N-(4-methylphenylcarbonylamino)-1,2,3,6-tetrahydropyridine]
% change in blood-glucose concentrations, post-treatment 2 hours (blood glucose; 2 hours): -73% | % change in blood-glucose concentrations, post-treatment 4 hours (blood glucose; 4 hours): -41% | Physiological activity: hypoglycemic (in words) (blood glucose): potent hypoglycemic activity | inhibition in vivo at 64 mg/kg [1, 4]: 92.4% | Physiological activity: analgesic (in words) [1]: active analgesics; also recorded: analgesic

O=C(NN1CC=CCC1)c1ccc(Cl)cc1 [Compound A-79, N-(4-chlorophenylcarbonylamino)-1,2,3,6-tetrahydropyridine]
% change in blood-glucose concentrations, post-treatment 4 hours (blood glucose; 4 hours): -26% | Physiological activity: hypoglycemic (in words) (blood glucose): potent hypoglycemic activity | inhibition in vivo at 64 mg/kg [1, 4]: 33.9% | Physiological activity: analgesic (in words) [1]: analgesic

O=C(NN1CC=CCC1)c1ccc(Cl)c(Cl)c1 [Compound A-80, N-(3,4-dichlorophenylcarbonylamino)-1,2,3,6-tetrahydropyridine]
% change in blood-glucose concentrations, post-treatment 2 hours (blood glucose; 2 hours): -50% | % change in blood-glucose concentrations, post-treatment 4 hours (blood glucose; 4 hours): -50% | Physiological activity: hypoglycemic (in words) (blood glucose): potent hypoglycemic activity | inhibition in vivo at 128 mg/kg [1, 3]: 72% | Physiological activity: analgesic (in words) [1]: active analgesics; also recorded: analgesic

CCC(=O)O[C@](Cc1ccccc1)(c1ccccc1)[C@H](C)CN(C)C [Dextropropoxyphene, reference compound]
ED50 ([1]; Mus musculus, sc): 56 mg/kg

N-(benzoylamino)-3(diethylaminocarbonyl)-1,2,3,6-tetrahydropyridine [Compound A-43]
Physiological activity: analgesic (in words) [1]: analgesic | Response % inhibition ([1]; s.c., mice, 128 mg/kg): 39.0%
